The values below come from patent US20200046835A1, “Systems, Methods, and Compositions For Cross-Linking Treatments of an Eye” (Avedro, Inc., priority 2014, published 2020).

Data set [1] relates to corneal collagen. Description: Papain digest fluorescence of pig corneal flaps (collagen cross-linking). To be noted: for fluorescence of the corneal samples after digestion with papain (excitation 360 nm), compared to controls not exposed to UV: phosphate buffer, UV 365 nm, 30 mW/cm^2, pulsed 1 s on:1 s off, 8 min, oxygen; for fluorescence (relative to untreated controls) recorded at 450 nm: FeSO4 0.5 mM added to 0.1% riboflavin. The procedure:
Corneal flaps were soaked in either distilled water or diluted H2O2 (1%) for 20 minutes. Flaps soaked in H2O2 were either rinsed twice with distilled water or removed from H2O2 and placed in 0.1% FeSO4 solution in distilled water for an additional 20 minute soak followed by a 2× rinse with distilled water. Flaps were dried in a vacuum until the weight change became less than 10% (Rotary vane vacuum pump RV3 A652-01-903, BOC Edwards, West Sussex, UK). Each flap was digested for 2.5 hours at 65° C. with 2.5 units/ml of papain (from Papaya latex, Sigma) in 1 ml of papain buffer [EBBS (pH 7.0-7.2), 2 mM L-cysteine and 2 mM EDTA]. Papain digests were centrifuged for 5 seconds at 2200×G (Mini centrifuge 05-090-100, Fisher Scientific), diluted 0.5 times with BBBS and fluorescence of the solutions was measured with excitation of λex=360 nm in a QM-40 Spectrofluorometer (Photon Technology Int., London, Ontario, Canada). The fluorescence of the papain buffer was taken into account by measuring fluorescence in the absence of tissue and subtracting this value from the fluorescence of the samples. […]
(§1) Pig eyes were shipped overnight on ice from an abattoir (SiouxPreme, Sioux City, Iowa), rinsed in saline. Eyes were cleaned and epithelium was removed. […] If specified, eyes were placed in a beaker with a light oxygen stream for 2 minutes in the incubation chamber prior to irradiation. Corneas were pan-corneally irradiated with a top hat beam (3% root mean square) for the chosen time (4 or 8 minutes) with 365-nm light source (UV LED NCSU033B[T]; Nichia Co., Tokushima, Japan) at the chosen irradiance (30 mW/cm^2, pulsed or non-pulsed) which was measured with a power sensor (model PD-300-UV; Ophir, Inc., Jerusalem, Israel) at the corneal surface. Corneal flaps (approximately 200 μm thick) were excised from the eyes with aid of Intralase femtosecond laser (Abbot Medical Optics, Santa Ana, Calif.). The average thickness of the corneal flaps was calculated as a difference between the measurements before and after the excision from the eyes with an ultrasonic Pachymeter (DGH Technology, Exton, Pa.). The flaps were placed into a biaxial extensometer (CellScale Biotester 5000, Waterloo, ON), using biorake attachments with 5 tines spanning a width of 3 mm. Each sample was stretched at a constant rate of 4 μm/s in saline at 37° C. until sample failure. The flaps were washed with distilled water 2 times, dried with filter paper, washed with dH2O two times, and then dried in a vacuum until the weight change became less than 10% (Rotary vane vacuum pump RV3 A652-01-903, BOC Edwards, West Sussex, UK). Each flap was digested for 2.5 hours at 65° C. with 2.5 units/ml of papain (from Papaya latex, Sigma) in 1 ml of papain buffer [BBBS (pH 7.0-7.2), 2 mM L-cysteine and 2 mM EDTA]. Papain digests were centrifuged for 5 seconds at 2200×G (Mini centrifuge 05-090-100, Fisher Scientific), diluted 0.5 times with 1× BBBS and fluorescence of the solutions was measured with excitation of λex=360 nm in a QM-40 Spectrofluorometer (Photon Technology Int., London, Ontario, Canada). The fluorescence of the papain buffer was taken into account by measuring fluorescence in the absence of tissue and subtracting this value from the fluorescence of the samples.
(§2) Oxygen was supplied continuously to the beaker during the time of exposure.
as §2

Data set [2] relates to corneal collagen. The experiment in a line: Biaxial extensometry (tensiometry) of pig corneal flaps. Particulars: for stiffening of corneal sample (displacement vs. force curves), compared to the unexposed controls: phosphate buffer, UV 365 nm, 30 mW/cm^2, pulsed 1 s on:1 s off, 8 min, oxygen; for corneal stiffness (displacement-force diagrams): 1% solution in dH2O. As to the method: as §1, §2
Oxygen was supplied continuously to the beaker during the time of exposure. Corneal flaps were cut at approximately 200 μm.
Pig eyes were shipped overnight on ice from an abattoir (SiouxPreme, Sioux City, Iowa), rinsed in saline. Eyes were cleaned and epithelium was removed. […] Corneas were pan-corneally irradiated with a top hat beam (3% root mean square) for 4 minutes with 365-nm light source (UV LED NCSU033B[T]; Nichia Co., Tokushima, Japan) at irradiance 30 mW/cm^2, which was measured with a power sensor (model PD-300-UV; Ophir, Inc., Jerusalem, Israel) at the corneal surface. Corneal flaps (approximately 200 μm thick) were excised from the eyes with aid of Intralase femtosecond laser (Abbott Medical Optics, Santa Ana, Calif.). The average thickness of the corneal flaps was calculated as a difference between the measurements before and after the excision from the eyes with an ultrasonic Pachymeter (DGH Technology, Exton, Pa.). The flaps were then placed into a biaxial extensometer (CellScale Biotester 5000, Waterloo, ON), using biorake attachments with 5 tines spanning a width of 3 mm. Each sample was stretched at a constant rate of 4 μm/s in saline at 37° C. until sample failure. The flaps were washed with distilled water, dried in a vacuum until the weight change became less than 10% (Rotary vane vacuum pump RV3 A652-01-903, BOC Edwards, West Sussex, UK). Each flap was digested for 2.5 h at 65° C. with 2.5 units/ml of papain (from Papaya latex, Sigma) in 1 ml of papain buffer [EBBS (pH 7.0-7.2), 2 mM L-cysteine and 2 mM EDTA].

The next data set deals with human serum albumin (Homo sapiens, UniProt P02768). To be noted: irradiated in the presence of human serum albumin; cited from earlier work.
The subject of data set [3] is corneal collagen. The experiment in a line: Papain digest fluorescence of pig corneal flaps (collagen cross-linking). To be noted: 0.1% in BBBS, de-oxygenated with argon, irradiated 4 min at 30 mW/cm^2 in CO2 atmosphere.
[4] abbreviates: 0.4% in PBS, UVA 30 mW/cm2, 4 min CW or 8 min pulsed with O2.

Chain of human serum albumin (P02768 25-609): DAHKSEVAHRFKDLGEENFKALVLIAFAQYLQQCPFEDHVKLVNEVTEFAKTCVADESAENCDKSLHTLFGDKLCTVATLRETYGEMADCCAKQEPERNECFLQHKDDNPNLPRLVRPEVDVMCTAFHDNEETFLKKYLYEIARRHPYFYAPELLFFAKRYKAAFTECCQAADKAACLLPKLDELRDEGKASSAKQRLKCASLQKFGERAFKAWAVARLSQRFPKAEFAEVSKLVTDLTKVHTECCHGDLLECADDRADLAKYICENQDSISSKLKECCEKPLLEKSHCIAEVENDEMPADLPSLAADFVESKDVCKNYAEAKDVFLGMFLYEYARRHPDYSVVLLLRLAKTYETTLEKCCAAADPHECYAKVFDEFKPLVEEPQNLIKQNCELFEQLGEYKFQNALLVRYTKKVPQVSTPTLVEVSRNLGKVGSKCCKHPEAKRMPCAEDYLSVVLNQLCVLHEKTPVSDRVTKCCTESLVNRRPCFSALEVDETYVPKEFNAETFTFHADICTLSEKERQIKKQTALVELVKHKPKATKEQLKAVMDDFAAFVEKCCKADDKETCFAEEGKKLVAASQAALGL

For the compound `Cc1cc2nc3c(=O)[nH]c(=O)nc-3n(C[C@H](O)[C@H](O)[C@H](O)CO)c2cc1C` [0.1% riboflavin, riboflavin], in the data set on corneal collagen [1], the “fluorescence of the corneal samples after digestion with papain (excitation 360 nm), compared to controls not exposed to UV” value is given as “increases”. Besides, the “average force vs. displacement measured by tensiometry” value in the data set with corneal collagen [2] (CW UVA 30 mW/cm^2, 4 min, relative to controls) was “higher than the control group”. Moreover, the “stiffening of corneal sample (displacement vs. force curves), compared to the unexposed controls” value with corneal collagen [2] was “significant stiffening”.
As for `CC(=O)C(C)=O` [2,3-butanedione], the “fluorescence output (relative to the untreated controls, Fo) recorded at 450 nm” value in the data set with corneal collagen [1] (1% solution in dH2O, with UV light 365 nm, 30 mW for 4 min) was “increase”. Besides, in the data set with corneal collagen [1] (1% solution in dH2O, without UV light), the “fluorescence (relative to the untreated controls, Fo) recorded at 450 nm” value is listed as “does not cross-link corneal flaps”. The “corneal stiffness (displacement-force diagrams)” value in the data set with corneal collagen [2] (with UV light 365 nm, 30 mW for 4 min) was “increase”; in the data set with corneal collagen [2] (without UV light), “does not cross-link corneal flaps”.
On to `Nc1nc2ncc(CNc3ccc(C(=O)N[C@@H](CCC(=O)O)C(=O)O)cc3)nc2c(=O)[nH]1` [FA, Folic acid], for which the “fluorescence of the corneal samples after digestion with papain (excitation 360 nm), compared to controls not exposed to UV” value with corneal collagen [1] is on record as “increases”. In addition, the “stiffening of corneal sample (displacement vs. force curves), compared to the unexposed controls” value with corneal collagen [2] was “significant stiffening”.
Consider `O=S(=O)([O-])[O-].[Fe+2]` [FeSO4, Iron(II) Sulfate], for which the “fluorescence (relative to untreated controls) recorded at 450 nm” value in the data set with corneal collagen [1] (CW UVA 30 mW/cm^2, 4 min) is “increase in fluorescence”; in the data set on corneal collagen [1] (PW+O2, UVA 30 mW/cm^2, 8 min (1 s on:1 s off)) it was “increase in fluorescence”. Also, the “average force vs. displacement measured by tensiometry (biaxial tension)” value in the data set on corneal collagen [2] (PW+O2, UVA 30 mW/cm^2, 8 min (1 s on:1 s off), versus 0.1% riboflavin) is listed as “increase in biaxial tension”.
On to `OO` [H2O2, hydrogen peroxide], for which the “fluorescence counts of papain digested corneal flaps (cross-linking)” value in the data set with corneal collagen [1] (1% H2O2 soak 20 min, with or without following 0.1% Iron(II) soak 20 min, no UV) is reported as “not”.
As for `Cc1c(C(=O)NCCO)[n+]([O-])c2ccccc2[n+]1[O-]` [Olaquindox, N-(2-hydroxyethyl)-3-methyl-2-quinoxalinecarboxamide 1,4-dioxide], the “relative fluorescence recorded at 450 nm of the cross-linked flaps” value in the data set with corneal collagen [1] (setting [4]) is given as “acquired fluorescence at 450 nm”. Besides, the “stiffness by biaxial extensiometry of 200 μm thick corneal flaps” value with corneal collagen [2] (setting [4]) was “became stiffer”. Besides, the “time to complete disappearance on irradiation” value at human serum albumin was no more than 20 s.
On to `Cc1cc2nc(C(=O)[O-])c(=O)n(C[C@H](O)[C@H](O)[C@H](O)CO)c2cc1C.O.[Na+]` [sodium salt of 1,2-Dihydro-6,7-dimethyl-2-keto-1-D-ribityl-3-quinoxalinecarboxylic acid monohydrate], for which the “fluorescence of the digested corneas in the area 450 nm” value with corneal collagen [1] (0.1% in BBBS, no epithelium, 20 min soak, 30 mW/cm^2 for 4 min continuous UVA) is “elevated fluorescence”. The “fluorescence of the digested corneal flaps (excitation 360 nm), compared with riboflavin” value in the data set with corneal collagen [3] was “higher than the fluorescence of the corneal flaps cross-linked with riboflavin”.
